No end group written: not given here.
What was measured:
[1] = system: mouse model of Cardiofaciocutaneous syndrome using a Braf mutation (p.Q241R); conditions: in vivo; cited from earlier work
[2] = system: mice deficient in Nf1 in type II collagen producing cells; conditions: daily injections; cited from earlier work
clinical [3] = conditions: human, in vivo
Description: Studies from rodent pups, growing lambs and children support the view that circulating levels of CNP products in plasma (CNP and NTproCNP) are sourced largely from growth plate or closely related tissues (Espiner 2018, supra). Measurement of any possible impact on endogenous proCNP production of administered CNP 1-37 Pro Gly (which strongly cross-reacts with CNP but not NTproCNP assay) is therefore only feasible using plasma concentrations of NTproCNP adjusted for age and sex (SDS). […] It is instructive to compare these dynamic changes in CNP with those found in short non Ach children of similar age starting daily doses of Human Growth Hormone (HGH) (Olney, et al. Clin Endocrinol (Oxf) 85:561-568, 2016). In that setting, similar inflections in AGV were associated with increase in NTproCNP (mean 11 pmol/L, delta 22% at day 21) in contrast to the concurrent fall of NTproCNP (approximately 6 pmol/L, range 3-11 pmol/L, delta-12%) at Day 29 during 15-30 μg/kg/d Vosoritide treatment in Cohorts 3 and 4. […] These kinetic responses could relate to the estimated times (approximately 20-22 days) (Sansone et al., J Pediatr Orthop 29:61-67, 2009) for recruited chondrocytes to traverse the respective zones of the expanding growth plate and populate the primary spongiosa.
This temporal constraint may relate to the early growth spurt observed in many of the children studied. […]

clinical [4] = conditions: human, in vivo; for Tmax: Median [range] Tmax; for Cmax: Mean (SD) Cmax
Description: (§1) In an ongoing Phase II study of CNP therapy in children, a group of patients age 3 to 6 months (cohort 3) were administered CNP (BMN111) at a dose of 30 μg/kg daily subcutaneously, and changes in annualized growth volume, changes in height, and skull morphology were measured.

[5] = system: children aged 3 to 60 months; parameters: species or system human; conditions: in vivo, sc
Description: See also PCT Application No. PCT/US22/73605.

[6] = human, in vivo
Description: as §1

Compound | body length [1] | ERK phosphorylation [2] | short stature [2] | half-life (clinical [3]) | Tmax (clinical [4]; 15 ug/kg) | Cmax (clinical [4]; 30 ug/kg) | Tmax (clinical [4]; 30 ug/kg) | Cmax (clinical [4]; sc, 15 ug/kg) | half-life (clinical [4]; sc, 15 ug/kg, Mean (SD) t1/2) | Tmax (clinical [4]; sc, 15 ug/kg) | AUC(0-t) (clinical [4]; sc, 30 ug/kg, Mean (SD) AUC0-t) | Cmax (clinical [4]; sc, 30 ug/kg) | overall adverse-event profile [5] | Median [range] Tmax ([6]; 15 ug/kg) | Mean (SD) Cmax ([6]; 30 ug/kg) | Mean (SD) AUC0-t ([6]; sc, 30 ug/kg)
C-type natriuretic peptide (GLSKGCFGLKLDRIGSMSGLGC; ends and bridges not checked; cysteine pairing not given here; UniProt P23582 105-126, looked up) [CNP, small, single chain peptide having a 17-amino acid loop structure at the C-terminal end] | increases in body length | decreased ERK phosphorylation | corrected the short stature | – | – | – | – | – | – | – | – | – | – | – | – | –
CC[C@H](C)[C@@H]1NC(=O)[C@H](CCCNC(=N)N)NC(=O)[C@H](CC(=O)O)NC(=O)[C@H](CC(C)C)NC(=O)[C@H](CCCCN)NC(=O)[C@H](CC(C)C)NC(=O)CNC(=O)[C@H](Cc2ccccc2)NC(=O)[C@@H](NC(=O)CNC(=O)[C@H](CCCCN)NC(=O)[C@H](CO)NC(=O)[C@H](CC(C)C)NC(=O)CNC(=O)[C@H](CCCCN)NC(=O)[C@H](CCCCN)NC(=O)[C@H](CC(N)=O)NC(=O)[C@H](C)NC(=O)CNC(=O)[C@H](CCCCN)NC(=O)[C@H](Cc2ccc(O)cc2)NC(=O)[C@H](CCCCN)NC(=O)[C@H](CCCNC(=N)N)NC(=O)[C@H](C)NC(=O)[C@H](CC(N)=O)NC(=O)[C@@H]2CCCN2C(=O)[C@H](Cc2c[nH]cn2)NC(=O)[C@H](CCC(=O)O)NC(=O)[C@H](CCC(N)=O)NC(=O)CNC(=O)[C@@H]2CCCN2)CSSC[C@@H](C(=O)O)NC(=O)CNC(=O)[C@H](CC(C)C)NC(=O)CNC(=O)[C@H](CO)NC(=O)[C@H](CCSC)NC(=O)[C@H](CO)NC(=O)CNC1=O [Vosoritide] | – | – | – | 28 min | 15 min | 0.0101 µg/mL | 14 min | 0.00443 µg/mL | 21.7 min | 15 min | 9.12 ng·h/mL | 0.0145 µg/mL | generally mild | 15.0 [7.0, 31.0] min | 13,500 (6770) pg/mL | 323,000 (129,000) pg-min/mL

Reference: patent US20250032576A1, “CNP Therapy” (BIOMARIN PHARMACEUTICAL INC., priority 2021, published 2025)
